Earlier results as cited in article PMC4734747 (Journal of nuclear medicine : official publication, Society …, 2013).

Tests used:
P-gp = settings: rodents; ref 19 (Verbeek et al.)
P-gp at the human BBB [1] = settings: brain, humans, no P-gp inhibition
P-gp at the BBB = settings: brain, macaques, no P-gp inhibition
P-gp at the human BBB [2] = settings: tariquidar 6 mg/kg; not necessarily the maximal increase

| Structure (SMILES) | affinity to P-gp relative to verapamil (P-gp) | mean baseline K1 (P-gp at the human BBB [1]) | mean baseline K1 (P-gp at the BBB) | increase in the brain distribution (reported by K1) after P-gp inhibition (P-gp at the human BBB [2]) |
| --- | --- | --- | --- | --- |
| CNCCCC(C#N)(c1ccc(OC)c(OC)c1)C(C)C (stereo not shown) [D617] | lower affinity to P-gp than does verapamil |  |  |  |
| CNC(=O)C(CCN1CCC(O)(c2ccc(Cl)cc2)CC1)(c1ccccc1)c1ccccc1 [dLOP, N-desmethyl-loperamide] |  | 0.015 mL/min/g | 0.04 mL/min/g | 4 fold |
